The experiment deals with T1, INaL v1.6 (late sodium current, HEK-293 cells expressing recombinant sodium channels) (Homo sapiens, UniProt Q9UQD0).
T1 construct: expressed in transfected cells; host or cells: HEK-293
As to the kind of experiment: Inhibition of ATX-II evoked Nav late current (INaL), PatchXpress electrophysiology. To be noted: late current evoked by ATX-II 300 nM; for INaL v1.6 % Inhibition: compound at 1 μM; for inhibition at 1 µM: HEK293, compound at 1 μM. The class given is cell-based. The protocol: Functional characterization of exemplary compounds to modulate voltage gated sodium currents was accomplished using the PatchXpress™ high throughput electrophysiology platforms (Molecular Devices, Sunnyvale, CA). HEK-293 cells expressing recombinant sodium channels were grown in DMEM/high-glucose Dulbecco's modified, 10% FBS, 2 mM sodium pyruvate, and G418. Nav channel expressing cells were grown to 50%-80% confluency and harvested by trypsinization. Trypsinized cells were washed and resuspended in extracellular buffer at a concentration of 1×10^6 cells/ml. The onboard liquid handling facility of the PatchXpress was used for dispensing cells and application of test compounds. Nav late currents were evoked by the application of ATX-II, 300 nM. Currents were evoked by depolarizing pulses to 0 mV for 200 ms from a non-inactivating holding potential (e.g., −120 mV to −150 mV) at a frequency of 0.1 Hz. Late current amplitude and stability were determined by analyzing the mean current amplitude over the 175-195 msec region of the 200 msec test pulse. Following steady state block with exemplary compounds (e.g., as described herein) at 1 μM, a Na^+ free solution containing an impermeant cation (e.g., Choline or NDMG) was added for determination of the 0 current level. Late current amplitudes for each test condition were determined from the mean of the 175-195 msec region of the 200 msec test pulse. Percent inhibition of steady state currents was calculated as (compound−baseline)/(control−baseline)*100, where control represents INaL recorded in the absence of compound.

Results on 26 compounds are retold here after patent US12344615B2, “Substituted pyridines as ion channel modulators” (PRAXIS PRECISION MEDICINES, INC., priority 2019, dated 2025).

A word on the inhibition: it is how much of the control response was suppressed.

T1 sequence (Q9UQD0 whole entry): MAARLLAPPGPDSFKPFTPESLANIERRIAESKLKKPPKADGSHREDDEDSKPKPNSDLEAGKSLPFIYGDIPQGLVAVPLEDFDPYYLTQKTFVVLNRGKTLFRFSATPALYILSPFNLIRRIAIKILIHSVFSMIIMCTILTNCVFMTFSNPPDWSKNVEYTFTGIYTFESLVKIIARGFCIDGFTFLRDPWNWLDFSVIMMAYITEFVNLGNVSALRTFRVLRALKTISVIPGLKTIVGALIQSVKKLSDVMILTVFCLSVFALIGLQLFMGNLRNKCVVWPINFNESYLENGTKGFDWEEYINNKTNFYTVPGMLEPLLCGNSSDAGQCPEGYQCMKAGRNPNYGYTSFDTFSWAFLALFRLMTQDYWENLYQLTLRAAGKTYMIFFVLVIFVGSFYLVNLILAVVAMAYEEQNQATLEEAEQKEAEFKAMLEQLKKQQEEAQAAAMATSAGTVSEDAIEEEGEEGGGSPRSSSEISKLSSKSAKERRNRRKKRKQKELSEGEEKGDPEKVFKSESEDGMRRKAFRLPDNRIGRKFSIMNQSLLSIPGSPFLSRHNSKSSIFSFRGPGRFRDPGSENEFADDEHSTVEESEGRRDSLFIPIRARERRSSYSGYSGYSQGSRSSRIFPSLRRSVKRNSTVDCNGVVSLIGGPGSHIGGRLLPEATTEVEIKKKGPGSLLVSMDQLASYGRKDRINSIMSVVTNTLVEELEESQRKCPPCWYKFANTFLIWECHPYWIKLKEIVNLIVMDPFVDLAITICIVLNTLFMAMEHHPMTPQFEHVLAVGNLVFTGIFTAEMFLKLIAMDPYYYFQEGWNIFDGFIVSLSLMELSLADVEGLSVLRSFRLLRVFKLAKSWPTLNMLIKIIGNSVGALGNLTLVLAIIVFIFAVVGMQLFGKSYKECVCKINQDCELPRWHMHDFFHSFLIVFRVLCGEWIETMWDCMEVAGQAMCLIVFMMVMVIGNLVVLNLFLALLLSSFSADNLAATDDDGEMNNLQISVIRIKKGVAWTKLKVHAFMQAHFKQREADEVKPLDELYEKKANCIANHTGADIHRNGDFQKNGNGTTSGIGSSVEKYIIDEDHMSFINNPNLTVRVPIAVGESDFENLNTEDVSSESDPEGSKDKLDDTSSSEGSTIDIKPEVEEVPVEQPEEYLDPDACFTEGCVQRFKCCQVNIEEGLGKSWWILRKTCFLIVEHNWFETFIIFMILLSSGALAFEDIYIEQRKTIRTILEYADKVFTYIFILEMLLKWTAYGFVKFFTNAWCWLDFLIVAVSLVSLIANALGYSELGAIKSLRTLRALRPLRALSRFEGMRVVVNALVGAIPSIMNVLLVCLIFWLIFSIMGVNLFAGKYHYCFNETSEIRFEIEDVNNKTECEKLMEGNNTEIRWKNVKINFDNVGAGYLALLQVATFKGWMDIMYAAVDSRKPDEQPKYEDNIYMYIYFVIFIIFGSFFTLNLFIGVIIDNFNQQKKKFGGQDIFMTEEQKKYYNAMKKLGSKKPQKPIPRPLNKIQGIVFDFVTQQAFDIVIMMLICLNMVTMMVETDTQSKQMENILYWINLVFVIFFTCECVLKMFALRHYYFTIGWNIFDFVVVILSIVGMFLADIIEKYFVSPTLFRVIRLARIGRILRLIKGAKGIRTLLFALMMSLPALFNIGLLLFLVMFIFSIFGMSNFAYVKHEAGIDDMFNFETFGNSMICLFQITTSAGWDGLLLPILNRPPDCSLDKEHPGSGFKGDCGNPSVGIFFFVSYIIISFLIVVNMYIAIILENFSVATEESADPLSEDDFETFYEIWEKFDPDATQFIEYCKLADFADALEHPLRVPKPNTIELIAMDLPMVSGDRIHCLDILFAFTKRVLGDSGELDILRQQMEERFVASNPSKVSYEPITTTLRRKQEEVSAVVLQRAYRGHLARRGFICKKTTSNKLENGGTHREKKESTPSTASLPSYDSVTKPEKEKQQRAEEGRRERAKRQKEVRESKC

Take `CC(C)(Oc1ncc(-c2cn3c(C4CC4(F)F)nnc3cn2)cc1F)C(F)(F)F` (single isomer, unassigned) [13 (Isomer 2)]: the “INaL v1.6 % Inhibition” value is listed as “B (inhibition of 50% to 75%)”.

In the case of `C[C@@H](Oc1ncc(-c2cn3c(C4CC4(F)F)nnc3cn2)cc1F)C(F)(F)F` (single isomer, unassigned) [16 (Isomer 1)], the inhibition at 1 µM was below 50%.

Regarding `Fc1cc(-c2cn3c(C(F)(F)F)nnc3cn2)cnc1OCC1CC1(F)F` (centres unmarked) [Compound 29], the inhibition at 1 µM is 50 to 75%.

On to `C[C@H](Oc1ccc(-c2nn3c(C(F)(F)F)nnc3cc2Cl)cn1)C(F)(F)F` [Compound 46, (S)-7-chloro-3-(trifluoromethyl)-6-(6-((1,1,1-trifluoropropan-2-yl)oxy)pyridin-3-yl)-[1,2,4]triazolo[4,3-b]pyridazine], for which the inhibition at 1 µM is above 75%.

As to `Fc1cc(-c2ccc3nnc(C(F)(F)F)n3n2)cnc1OC1(C(F)(F)F)COC1` [Compound 4, 6-[5-fluoro-6-[3-(trifluoromethyl)oxetan-3-yl]oxy-3-pyridyl]-3-(trifluoromethyl)-[1,2,4]triazolo[4,3-b]pyridazine], the inhibition at 1 µM is 50 to 75%.

`Fc1cc(-c2ccc3nnc(C(F)(F)F)n3n2)cnc1OCC1CC1(F)F` (centres unmarked) [Compound 24, 6-[6-[(2,2-difluorocyclopropyl)methoxy]-5-fluoro-3-pyridyl]-3-(trifluoromethyl)-[1,2,4]triazolo[4,3-b]pyridazine]: the inhibition at 1 µM fell in the range of 50 to 75%.

With `Fc1cc(-c2ccc3nnc(C(F)(F)F)n3n2)cnc1OC1(C(F)(F)F)CCC1` [Compound 6, 6-[5-fluoro-6-[1-(trifluoromethyl)cyclobutoxy]-3-pyridyl]-3-(trifluoromethyl)-[1,2,4]triazolo[4,3-b]pyridazine], the inhibition at 1 µM is above 75%.

In the case of `Cc1cc2nnc(C(F)(F)F)n2nc1-c1ccc(O[C@@H](C)C(F)(F)F)nc1` [Compound 48, (S)-7-methyl-3-(trifluoromethyl)-6-(6-((1,1,1-trifluoropropan-2-yl)oxy)pyridin-3-yl)-[1,2,4]triazolo[4,3-b]pyridazine], the inhibition at 1 µM is above 75%.

Turning to `Cc1cc2nnc(C(F)(F)F)n2nc1-c1cnc(O[C@@H](C)C(F)(F)F)c(F)c1` [Compound 44, (S)-6-(5-fluoro-6-((1,1,1-trifluoropropan-2-yl)oxy)pyridin-3-yl)-7-methyl-3-(trifluoromethyl)-[1,2,4]triazolo[4,3-b]pyridazine], the inhibition at 1 µM was above 75%.

Turning to `CC(C)(Oc1ncc(-c2nn3c(C(F)(F)F)nnc3cc2Cl)cc1F)C(F)(F)F` [Compound 41, 7-chloro-6-[5-fluoro-6-(2,2,2-trifluoro-1,1-dimethyl-ethoxy)-3-pyridyl]-3-(trifluoromethyl)-[1,2,4]triazolo[4,3-b]pyridazine], the inhibition at 1 µM was above 75%.

Take `C[C@@H](Oc1ncc(-c2cn3c(C4CC4(F)F)nnc3cn2)cc1F)C(F)(F)F` (single isomer, unassigned) [16 (Isomer 2)]: the “INaL v1.6 % Inhibition” value is recorded as “B (inhibition of 50% to 75%)”.

For `Cc1cc2nnc(C(F)(F)F)n2nc1-c1ccc(O[C@H](C)C(F)(F)F)nc1` [Compound 49, (R)-7-methyl-3-(trifluoromethyl)-6-(6-((1,1,1-trifluoropropan-2-yl)oxy)pyridin-3-yl)-[1,2,4]triazolo[4,3-b]pyridazine], the inhibition at 1 µM lay in the range of 50 to 75%.

Consider `CC(C)(Oc1ncc(-c2cn3c(C4CC4(F)F)nnc3cn2)cc1F)C(F)(F)F` (centres unmarked) [Compound 10, 3-(2,2-difluorocyclopropyl)-6-[5-fluoro-6-(2,2,2-trifluoro-1,1-dimethyl-ethoxy)-3-pyridyl]-[1,2,4]triazolo[4,3-a]pyrazine], for which the inhibition at 1 µM is 50 to 75%.

Take `Fc1cc(-c2ccc3nnc(C(F)(F)F)n3n2)cnc1OC1CC(F)(F)C1(F)F` (centres unmarked) [Compound 26, 6-[5-fluoro-6-(2,2,3,3-tetrafluorocyclobutoxy)-3-pyridyl]-3-(trifluoromethyl)-[1,2,4]triazolo[4,3-b]pyridazine]: the inhibition at 1 µM was above 75%.

In the case of `Cc1cc2nnc(C(F)(F)F)n2nc1-c1cnc(O[C@H](C)C(F)(F)F)c(F)c1` [Compound 45, (R)-6-(5-fluoro-6-((1,1,1-trifluoropropan-2-yl)oxy)pyridin-3-yl)-7-methyl-3-(trifluoromethyl)-[1,2,4]triazolo[4,3-b]pyridazine], the inhibition at 1 µM lay within 50 to 75%.

`C[C@H](Oc1ncc(-c2cn3c(C4CC4(F)F)nnc3cn2)cc1F)C(F)(F)F` (single isomer, unassigned) [18 (Isomer 1)]: the inhibition at 1 µM is below 50%.

For `C[C@@H](Oc1ncc(-c2cn3c(C4CC(F)(F)C4)nnc3cn2)cc1F)C(F)(F)F` [Compound 20, 3-(3,3-difluorocyclobutyl)-6-[5-fluoro-6-[(1R)-2,2,2-trifluoro-1-methyl-ethoxy]-3-pyridyl]-[1,2,4]triazolo[4,3-a]pyrazine], the inhibition at 1 µM was below 50%.

Turning to `Fc1cc(-c2cn3c(C(F)F)nnc3cn2)cnc1OC1(C(F)(F)F)CCC1` [Compound 9, 3-(difluoromethyl)-6-[5-fluoro-6-[1-(trifluoromethyl)cyclobutoxy]-3-pyridyl]-[1,2,4]triazolo[4,3-a]pyrazine], the inhibition at 1 µM is above 75%.

Take `Cc1cc2nnc(C(F)(F)F)n2nc1-c1cnc(OC(C)(C)C(F)(F)F)c(F)c1` [Compound 40, 6-[5-fluoro-6-(2,2,2-trifluoro-1,1-dimethyl-ethoxy)-3-pyridyl]-7-methyl-3-(trifluoromethyl)-[1,2,4]triazolo[4,3-b]pyridazine]: the inhibition at 1 µM is above 75%.

On to `Cc1cc2nnc(C(F)(F)F)n2nc1-c1ccc(OC(C)(C)C(F)(F)F)nc1` [Compound 51, 7-methyl-6-[6-(2,2,2-trifluoro-1,1-dimethyl-ethoxy)-3-pyridyl]-3-(trifluoromethyl)-[1,2,4]triazolo[4,3-b]pyridazine], for which the inhibition at 1 µM fell in the range of 50 to 75%.

For the compound `Fc1cc(-c2ccc3nnc(C(F)(F)F)n3n2)cnc1OCC1CC1(F)F` (single isomer, unassigned) [23 (Isomer 1)], the inhibition at 1 µM lay in the range of 50 to 75%.

As for `C[C@H](Oc1ncc(-c2cn3c(C4CC(F)(F)C4)nnc3cn2)cc1F)C(F)(F)F` [Compound 19, 3-(3,3-difluorocyclobutyl)-6-[5-fluoro-6-[(1S)-2,2,2-trifluoro-1-methyl-ethoxy]-3-pyridyl]-[1,2,4]triazolo[4,3-a]pyrazine], the inhibition at 1 µM lay in the range of 50 to 75%.

`Fc1cc(-c2ccc3nnc(C(F)F)n3n2)cnc1OCC1CC1(F)F` (centres unmarked) [Compound 22, 6-[6-[(2,2-difluorocyclopropyl)methoxy]-5-fluoro-3-pyridyl]-3-(difluoromethyl)-[1,2,4]triazolo[4,3-b]pyridazine]: the inhibition at 1 µM is below 50%.

As to `C[C@H](Oc1ncc(-c2ccc3nnc(C(F)F)n3n2)cc1F)C(F)(F)F` [Compound 15, 3-(difluoromethyl)-6-[5-fluoro-6-[(1S)-2,2,2-trifluoro-1-methyl-ethoxy]-3-pyridyl]-[1,2,4]triazolo[4,3-b]pyridazine], the inhibition at 1 µM was above 75%.

As for `Fc1cc(-c2cn3c(C(F)(F)F)nnc3cn2)cnc1OC1CC(F)(F)C1(F)F` (single isomer, unassigned) [32 (Isomer 1)], the inhibition at 1 µM was above 75%.

Take `C[C@@H](Oc1ccc(-c2nn3c(C(F)(F)F)nnc3cc2Cl)cn1)C(F)(F)F` [Compound 47, (R)-7-chloro-3-(trifluoromethyl)-6-(6-((1,1,1-trifluoropropan-2-yl)oxy)pyridin-3-yl)-[1,2,4]triazolo[4,3-b]pyridazine]: the inhibition at 1 µM is 50 to 75%.
